# Measured values from patent US9255094B2, “Pyrido[4,3-B]indoles and methods of use” (Medivation Technologies, Inc., priority 2009, dated 2016).
# Key:
# [1] = biological target: T1, rat adrenergic α1B receptor (Rattus norvegicus, UniProt P15823); assay: Adrenergic α1B radioligand binding assay ([3H]Prozosin); details: compound at 0.1 μM; 0.25 nM [3H]Prozosin; Wistar Rat liver; read-out: Percent Inhibition of ligand binding, Adrenergic (0.1 μM) a1B
# T1 construct: from tissue; host or cells: Wistar Rat liver
# T1 sequence (P15823 1-515): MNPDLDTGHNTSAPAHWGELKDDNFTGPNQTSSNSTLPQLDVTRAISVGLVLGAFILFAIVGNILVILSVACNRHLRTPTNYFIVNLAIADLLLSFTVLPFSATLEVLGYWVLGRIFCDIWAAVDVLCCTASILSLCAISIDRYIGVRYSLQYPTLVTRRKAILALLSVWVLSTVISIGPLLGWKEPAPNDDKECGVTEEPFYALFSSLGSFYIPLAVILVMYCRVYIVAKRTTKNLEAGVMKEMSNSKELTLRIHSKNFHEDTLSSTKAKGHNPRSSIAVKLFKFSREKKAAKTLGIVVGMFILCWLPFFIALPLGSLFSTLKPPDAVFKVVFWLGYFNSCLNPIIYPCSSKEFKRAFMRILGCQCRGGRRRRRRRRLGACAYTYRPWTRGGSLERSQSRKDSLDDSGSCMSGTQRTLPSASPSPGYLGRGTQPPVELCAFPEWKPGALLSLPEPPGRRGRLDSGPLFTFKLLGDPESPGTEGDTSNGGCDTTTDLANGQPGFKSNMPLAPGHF
# Procedure: To evaluate in radioligand binding assays the activity of compounds of the invention, rat adrenergic α1B receptor obtained from Wistar Rat liver (Garcia-S'ainz, J. A. et al., Biochem. Biophys. Res. Commun. 186:760, 1992; Michel A. D. et al., Br. J. Pharmacol. 98:883, 1989) in a modified Tris-HCl buffer (50 mM Tris-HCl buffer, pH 7.4, 0.5 mM EDTA) is used. Compounds of the invention are incubated with 0.25 nM [^3H]Prozosin for 60 min at 25° C. Non-specific binding is estimated in the presence of 10 μM phentolamine. Receptor proteins are filtered and washed, the filters are then counted to determine [^3H]Prozosin specifically bound. Compounds are screened at 1 μM or lower, using 1% DMSO as vehicle. Compounds of the invention are tested in this biochemical assay and percent inhibition of specific binding is determined.
# [2] = biological target: T2, human recombinant serotonin (5-Hydroxytryptamine) 5-HT5A receptor (Homo sapiens, UniProt P47898); assay: Serotonin 5-HT5A radioligand binding assay ([3H]LSD); details: compound at 0.1 μM; 1.7 nM [3H]LSD; CHO-K1 cells; read-out: Percent Inhibition of ligand binding, Serotonin (0.1 μM) 5-HT5A
# T2 construct: expressed in transfected cells; host or cells: Chinese hamster ovary (CHO-K1) cells
# T2 sequence (P47898 whole entry): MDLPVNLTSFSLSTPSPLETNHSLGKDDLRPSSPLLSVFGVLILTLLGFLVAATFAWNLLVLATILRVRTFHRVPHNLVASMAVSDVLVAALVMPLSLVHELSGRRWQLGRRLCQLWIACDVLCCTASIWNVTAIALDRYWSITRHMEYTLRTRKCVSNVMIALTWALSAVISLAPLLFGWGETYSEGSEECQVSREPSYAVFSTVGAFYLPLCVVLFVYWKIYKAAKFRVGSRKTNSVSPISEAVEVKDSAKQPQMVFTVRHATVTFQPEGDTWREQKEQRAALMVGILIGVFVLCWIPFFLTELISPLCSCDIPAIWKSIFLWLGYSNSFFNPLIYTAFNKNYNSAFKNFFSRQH
# Procedure: Compounds of the invention were incubated with 1.7 nM [^3H]Lysergic acid diethylamide (LSD) for 60 min at 37° C. […] Receptor proteins were filtered and washed, the filters were then counted to determine [^3H]LSD specifically bound. Compounds were screened at 1 μM or lower, using 1% DMSO as vehicle. Compounds of the invention were tested in this biochemical assay and percent inhibition of specific binding was determined. Biochemical assay results are presented as the percent inhibition of specific binding in Table 4.
SMILES,inhibition at 0.1 µM [1],inhibition at 0.1 µM [2]
"Cc1ccc2c(c1)c1c(n2CC(O)c2ccncc2)CCN(C)C1 (centres unmarked) [Compound 1-8, 2-(2,8-dimethyl-3,4-dihydro-1H-pyrido[4,3-b]indol-5(2H)-yl)-1-(pyridin-4-yl)ethanol]",54%,–
"CN1CCc2c(c3cc(Cl)ccc3n2CC(O)c2ccncc2)C1 (centres unmarked) [Compound 1-11, 2-(8-chloro-2-methyl-3,4-dihydro-1H-pyrido[4,3-b]indol-5(2H)-yl)-1-(pyridin-4-yl)ethanol]",60%,–
"CN1CCc2c(c3cc(Cl)c(Cl)cc3n2CC(C)(O)c2ccncc2)C1 (centres unmarked) [Compound 1-17, 1-(7,8-dichloro-2-methyl-3,4-dihydro-1H-pyrido[4,3-b]indol-5(2H)-yl)-2-(pyridin-4-yl)propan-2-ol]",55%,–
"COc1ccc([C@](C)(O)Cn2c3c(c4cc(C)ccc42)CN(C)CC3)cc1 [Compound 1-20, (S)-1-(2,8-Dimethyl-3,4-dihydro-1H-pyrido[4,3-b]indol-5(2H)-yl)-2-(4-methoxyphenyl)propan-2-ol]",63%,–
"CC[C@](O)(Cn1c2c(c3cc(C)ccc31)CN(C)CC2)c1ccc(F)cc1 [Compound 1-60, (R)-1-(2,8-Dimethyl-3,4-dihydro-1H-pyrido[4,3-b]indol-5(2H)-yl)-2-(4-fluorophenyl)butan-2-ol]",-2%,26%
"CCCC[C@](O)(Cn1c2c(c3cc(Cl)ccc31)CN(C)CC2)c1ccc(F)cc1 [Compound 1-61, (R)-1-(8-Chloro-2-methyl-3,4-dihydro-1H-pyrido[4,3-b]indol-5(2H)-yl)-2-(4-fluorophenyl)hexan-2-ol]",0%,5%
"CC[C@@](O)(Cn1c2c(c3cc(C)ccc31)CN(C)CC2)c1ccncc1 [Compound 1-62, (S)-1-(2,8-Dimethyl-3,4-dihydro-1H-pyrido[4,3-b]indol-5(2H)-yl)-2-(pyridine-4-yl)butan-2-ol]",–,6%
"CC[C@](O)(Cn1c2c(c3cc(C)ccc31)CN(C)CC2)c1ccncc1 [Compound 1-63, (R)-1-(2,8-Dimethyl-3,4-dihydro-1H-pyrido[4,3-b]indol-5(2H)-yl)-2-(pyridine-4-yl)butan-2-ol]",5%,15%
"Cc1ccc2c(c1)c1c(n2CCc2ccc(C)nc2)CCN(CC(F)(F)F)C1 [Compound 1-65, 8-methyl-5-(2-(6-methylpyridin-3-yl)ethyl)-2-(2,2,2-trifluoroethyl)-2,3,4,5-tetrahydro-1H-pyrido[4,3-b]indole]",-4%,-12%
"CC[C@@](O)(Cn1c2c(c3cc(C)ccc31)CN(C)CC2)c1ccc(F)cc1 [Compound 1-66, (S)-1-(2,8-dimethyl-3,4-dihydro-1H-pyrido[4,3-b]indol-5(2H)-yl)-2-(4-fluorophenyl)butan-2-ol]",11%,31%
"CCCC[C@@](O)(Cn1c2c(c3cc(Cl)ccc31)CN(C)CC2)c1ccc(F)cc1 [Compound 1-67, (S)-1-(8-chloro-2-methyl-3,4-dihydro-1H-pyrido[4,3-b]indol-5(2H)-yl)-2-(4-fluorophenyl)hexan-2-ol]",-2%,-11%
